Source: patent US5789386A, “Fluorine-containing anthracycline derivatives having hydroxyl groups(s) mono- or di-o-aminoalkanoylated in the sugar moiety thereof” (priority 1995, dated 1998)
In brackets after ≈: the same amount, converted by molar mass. Where two headings read alike, the source gives them in different places.

Columns and labels:
Leukemia L-1210 cells = assay: Antitumor test against leukemia L-1210 in CDF1 mice (T/C, %); assay type: in vivo, mouse (CDF1); conditions: for antitumor activities (in words): compared with FT-DM, FT-ADM, daunomycin, adriamycin or another test compound; for % Increase in life-span (T/C, %) / mice cured and surviving for 60 days or longer / mice tested: 9 days
Experimental: Thus, to evaluate the antitumor effects of the new compounds according to the first aspect of this invention against experimental tumors in animals, CDF1 mice (four mice per group) were intraperitoneally transplanted with cells of Leukemia L-1210 at an amount of 1×10^5 cells/mouse. Since an elapsed time of 24 hours from the transplantation of the leukemia cells, a test compound according to this invention was administered intraperitoneally to the mice under test for 9 consecutive days once per day. […] While, mice of the control group (the untreated group) were administered with only physiological saline after the transplantation of the L-1210 cells. During the observation period, the numbers of the surviving mice in the treated group and in the control group were counted, and the mean survival days of mice in the treated group and in the control group were then calculated. From the mean survival day (C) of the untreated mice of the control group and the mean survival day (T) of the treated mice of the treated group, there were evaluated percentages (%) of the increase in the life-span of the treated mice, as T/C %. For a comparison purpose, 7-O-(2,6-dideoxy-2-fluoro-α-L-talopyranosyl)daunomycinone (abbreviation: FT-DM); 7-O-(2,6-dideoxy-2-fluoro-α-L-talopyranosyl)adriamycinone(abbreviation: FT-ADM); and adriamycin were also tested in the same manner as above. Incidentally, the mean survival day of mice of the control group (the untreated group) was amounting to 8 to 9 days, and the mean survival day of mice of the comparative groups having received the administration of adriamycin was varying dependently on the dosage of adriamycin.
Notes; Asterisks (*) indicate that development of toxicity such as
toxicityrelated death or a body weight loss was observed on the
corresponding mice tested.

[1] = system: adriamycin-resistant P388 cells (P388/ADR); assay: In vitro growth inhibition of adriamycin-resistant P388 cells (P388/ADR), 72 hours; assay type: cell-based; conditions: Mus musculus, 72 hours, test compounds as trifluoroacetate, read-out: IC50
[2] = system: mouse leukemia, P388 cells; assay: In vitro growth inhibition of P388 cells, 72 hours; assay type: cell-based
[3] = 0.3 mg/kg/day i.p., ">" = at least one of four mice survived 60 days or longer
[4] = 0.6 mg/kg/day i.p., ">" = at least one of four mice survived 60 days or longer
[5] = 1.25 mg/kg/day i.p., ">" = at least one of four mice survived 60 days or longer
[6] = 2.5 mg/kg/day i.p., ">" = at least one of four mice survived 60 days or longer
[7] = 5 mg/kg/day i.p., ">" = at least one of four mice survived 60 days or longer
[8] = P388, 72 hours, test compounds as trifluoroacetate, read-out: IC50

| Structure (SMILES) | IC50 [1] [µg/mL] | IC50 ([2]; P388, 72 h) [µg/mL] | % Increase in life-span (T/C, %) (Leukemia L-1210 cells; 0.15 mg/kg/day i.p.) [%] | % Increase in life-span (T/C, %) (Leukemia L-1210 cells; [4]) [%] | % Increase in life-span (T/C, %) (Leukemia L-1210 cells; [5]) [%] | % Increase in life-span (T/C, %) (Leukemia L-1210 cells; [6]) [%] | % Increase in life-span (T/C, %) (Leukemia L-1210 cells; [7]) [%] | IC50 [2, 8] [µg/mL] | other results |
| --- | --- | --- | --- | --- | --- | --- | --- | --- | --- |
| COc1cccc2c1C(=O)c1c(O)c3c(c(O)c1C2=O)C[C@@](O)(C(=O)CO)C[C@@H]3O[C@@H]1O[C@@H](C)[C@@H](O)[C@@H](OC(=O)[C@H](C)N)[C@H]1F [Compound 8b, 7-O-(3-O-L-alanyl-2,6-dideoxy-2-fluoro-α-L-talopyranosyl)adriamycinone] | – | – | – | – | – | – | – | – | antitumor activities (in words) (Leukemia L-1210 cells): remarkably improved antitumor activities in comparison with those of the parent compound, FT-ADM |
| COc1cccc2c1C(=O)c1c(O)c3c(c(O)c1C2=O)C[C@@](O)(C(=O)CO)C[C@@H]3O[C@@H]1O[C@@H](C)[C@@H](OC(=O)[C@H](C)N)[C@@H](O)[C@H]1F [Compound 9b, 7-O-(4-O-L-alanyl-2,6-dideoxy-2-fluoro-α-L-talopyranosyl)adriamycinone] | – | – | – | – | – | – | – | – | antitumor activities (in words) (Leukemia L-1210 cells): remarkably improved antitumor activities in comparison with those of the parent compound, FT-ADM |
| COc1cccc2c1C(=O)c1c(O)c3c(c(O)c1C2=O)C[C@@](O)(C(=O)CO)C[C@@H]3O[C@@H]1O[C@@H](C)[C@@H](OC(=O)CN)[C@@H](OC(=O)CN)[C@H]1F [Compound 11a, 7-O-(2,6-dideoxy-2-fluoro-3,4-di-O-glycyl-α-L-talopyranosyl)adriamycinone] | 0.32 (≈ 0.473 µM) | < 0.0098 | 111 | 170 | 321 | > 430 | > 518 | – | % Increase in life-span (T/C, %) (Leukemia L-1210 cells; [3]): 125%; mice cured and surviving for 60 days or longer / mice tested (Leukemia L-1210 cells; 2.5 mg/kg/day i.p.): 1/4; mice cured and surviving for 60 days or longer / mice tested (Leukemia L-1210 cells; 5 mg/kg/day i.p.): 2/4 |
| COc1cccc2c1C(=O)c1c(O)c3c(c(O)c1C2=O)C[C@@](O)(C(=O)CO)C[C@@H]3O[C@@H]1O[C@@H](C)[C@@H](OC(=O)[C@H](C)N)[C@@H](OC(=O)[C@H](C)N)[C@H]1F [Compound 11b, 7-O-(3,4-di-O-L-alanyl-2,6-dideoxy-2-fluoro-α-L-talopyranosyl)adriamycinone] | 0.31 (≈ 0.44 µM) | < 0.0098 | 115 | > 361 | > 407 | > 666 | > 502 | – | % Increase in life-span (T/C, %) (Leukemia L-1210 cells; [3]): 144%; mice cured and surviving for 60 days or longer / mice tested (Leukemia L-1210 cells; 0.6 mg/kg/day i.p.): 1/4; mice cured and surviving for 60 days or longer / mice tested (Leukemia L-1210 cells; 1.25 mg/kg/day i.p.): 1/4; mice cured and surviving for 60 days or longer / mice tested (Leukemia L-1210 cells; 2.5 mg/kg/day i.p.): 2/4; mice cured and surviving for 60 days or longer / mice tested (Leukemia L-1210 cells; 5 mg/kg/day i.p.): 2/4; antitumor activities (in words) (Leukemia L-1210 cells): a little inferior to the antitumor activities of said mixture of Compounds 8b and 9b but are yet considerably high antiumor activities |
| COc1cccc2c1C(=O)c1c(O)c3c(c(O)c1C2=O)C[C@@](O)(C(=O)CO)C[C@@H]3O[C@@H]1O[C@@H](C)[C@@H](OC(=O)[C@@H](N)Cc2ccccc2)[C@@H](OC(=O)[C@@H](N)Cc2ccccc2)[C@H]1F [Compound 11c, 7-O-(2,6-dideoxy-2-fluoro-3,4-di-O-L-phenylalanyl-α-L-talopyranosyl)adriamycinone] | 0.14 (≈ 0.163 µM) | – | 123 | 143 | 170 | 177 | 253 | 0.026 (≈ 0.0303 µM) | % Increase in life-span (T/C, %) (Leukemia L-1210 cells; [3]): 130% |
| COc1cccc2c1C(=O)c1c(O)c3c(c(O)c1C2=O)C[C@@](O)(C(=O)CO)C[C@@H]3O[C@@H]1O[C@@H](C)[C@@H](OC(=O)[C@@H](N)C(C)C)[C@@H](OC(=O)[C@@H](N)C(C)C)[C@H]1F [Compound 11d, 7-O-(2,6-dideoxy-2-fluoro-3,4-di-O-L-valyl-α-L-talopyranosyl)adriamycinone] | 0.32 (≈ 0.421 µM) | < 0.0098 | – | – | – | – | – | – | – |
| COc1cccc2c1C(=O)c1c(O)c3c(c(O)c1C2=O)C[C@@](O)(C(=O)CO)C[C@@H]3O[C@@H]1O[C@@H](C)[C@@H](OC(=O)[C@@H](N)CC(C)C)[C@@H](OC(=O)[C@@H](N)CC(C)C)[C@H]1F [Compound 11e, 7-O-(2,6-dideoxy-2-fluoro-3,4-di-O-L-leucyl-α-L-talopyranosyl)adriamycinone] | 0.27 (≈ 0.342 µM) | – | – | – | – | – | – | 0.032 (≈ 0.0406 µM) | – |
| COc1cccc2c1C(=O)c1c(O)c3c(c(O)c1C2=O)C[C@@](O)(C(=O)CO)C[C@@H]3O[C@@H]1O[C@@H](C(F)(F)F)[C@@H](OC(=O)CN)[C@@H](OC(=O)CN)[C@H]1F [Compound 18, 7-O-(2,6-dideoxy-2,6,6,6-tetrafluoro-3,4-di-O-glycyl-α-L-talopyranosyl)adriamycinone] | 0.28 (≈ 0.383 µM) | – | – | – | – | – | – | < 0.0098 | – |
| COc1cccc2c1C(=O)c1c(O)c3c(c(O)c1C2=O)C[C@@](O)(C(=O)CO)C[C@@H]3O[C@H]1C[C@H](OC(=O)CN)[C@H](OC(=O)CN)[C@H](C(F)(F)F)O1 [Compound 25, 7-O-(2,6-dideoxy-6,6,6-trifluoro-3,4-di-O-glycyl-α-L-lyxo-hexopryranosyl)adriamycinone] | – | < 0.0098 | – | – | – | – | – | – | – |
| COc1cccc2c1C(=O)c1c(O)c3c(c(O)c1C2=O)C[C@@](O)(C(=O)CO)C[C@@H]3O[C@@H]1O[C@@H](C(F)(F)F)[C@@H](OC(=O)[C@H](C)N)[C@@H](OC(=O)[C@H](C)N)[C@H]1F [Compound 31, 7-O-(3,4-di-O-L-alanyl-2,6-dideoxy-2,6,6,6-tetrafluoro-α-L-talopyranosyl)adriamycinone] | 0.14 (≈ 0.185 µM) | – | – | – | – | – | – | < 0.0098 | – |
| COc1cccc2c1C(=O)c1c(O)c3c(c(O)c1C2=O)C[C@@](O)(C(=O)CO)C[C@@H]3O[C@@H]1O[C@@H](C(F)(F)F)[C@@H](OC(=O)[C@@H](N)Cc2ccccc2)[C@@H](OC(=O)[C@@H](N)Cc2ccccc2)[C@H]1F [Compound 37, 7-O-(2,6-dideoxy-2,6,6,6-tetrafuluoro-3,4-di-O-L-phenylalanyl-α-L-talopyranosyl)adriamycinone] | 0.17 (≈ 0.187 µM) | – | – | – | – | – | – | 0.016 (≈ 0.0176 µM) | – |
| COc1cccc2c1C(=O)c1c(O)c3c(c(O)c1C2=O)C[C@@](O)(C(=O)CO)C[C@@H]3O[C@H]1C[C@H](OC(=O)[C@H](C)N)[C@H](OC(=O)[C@H](C)N)[C@H](C(F)(F)F)O1 [Compound 43, 7-O-(3,4-di-O-L-alanyl-2,6-dideoxy-6,6,6-trifluoro-α-L-lyxo-hexopyranosyl)adriamycinone] | 0.22 (≈ 0.297 µM) | < 0.0098 | – | – | – | – | – | – | – |
| COc1cccc2c1C(=O)c1c(O)c3c(c(O)c1C2=O)C[C@@](O)(C(=O)CO)C[C@@H]3O[C@H]1C[C@H](OC(=O)[C@@H](N)Cc2ccccc2)[C@H](OC(=O)[C@@H](N)Cc2ccccc2)[C@H](C(F)(F)F)O1 [Compound 49, 7-O-(2,6-dideoxy-6,6,6-trifluoro-3,4-di-O-L-phenylalanyl-α-L-lyxo-hexopyranosyl)adriamycinone] | 0.28 (≈ 0.314 µM) | – | – | – | – | – | – | 0.02 (≈ 0.0224 µM) | – |
| COc1cccc2c1C(=O)c1c(O)c3c(c(O)c1C2=O)C[C@@](O)(C(=O)CO)C[C@@H]3O[C@@H]1O[C@@H](C)[C@@H](O)[C@@H](O)[C@H]1F [FT-ADM, 7-O-(2,6-dideoxy-2-fluoro-α-L-talopyranosyl)adriamycinone, reference compound] | – | – | 127 | 185 | 275 | > 352 | > 740 | – | % Increase in life-span (T/C, %) (Leukemia L-1210 cells; [3]): 182%; mice cured and surviving for 60 days or longer / mice tested (Leukemia L-1210 cells; 2.5 mg/kg/day i.p.): 1/4; mice cured and surviving for 60 days or longer / mice tested (Leukemia L-1210 cells; 5 mg/kg/day i.p.): 4/4 |
| COc1cccc2c1C(=O)c1c(O)c3c(c(O)c1C2=O)C[C@@](O)(C(C)=O)C[C@@H]3O[C@@H]1O[C@@H](C)[C@@H](O)[C@@H](O)[C@H]1F [FT-DM, 7-O-(2,6-dideoxy-2-fluoro-α-L-talopyranosyl)daunomycinone, reference compound] | – | – | 105 | 125 | 171 | 217 | 184 | – | – |
